Measurements published in ChEMBL document CHEMBL3217554, “Fast and effective identification of the bioactive compounds and their targets from medicinal plants via computational chemical biology approach” (Medchemcomm, 2011).

These molecules were tested against Dipeptidyl peptidase 4 (Homo sapiens, UniProt P27487) (assay: Inhibition of human DPP4 using H-Gly-Pro-AMC peptide substrate assessed as increase in fluorescence for 20 mins by fluorimetric assay).
Chain of Dipeptidyl peptidase 4 (P27487 whole entry): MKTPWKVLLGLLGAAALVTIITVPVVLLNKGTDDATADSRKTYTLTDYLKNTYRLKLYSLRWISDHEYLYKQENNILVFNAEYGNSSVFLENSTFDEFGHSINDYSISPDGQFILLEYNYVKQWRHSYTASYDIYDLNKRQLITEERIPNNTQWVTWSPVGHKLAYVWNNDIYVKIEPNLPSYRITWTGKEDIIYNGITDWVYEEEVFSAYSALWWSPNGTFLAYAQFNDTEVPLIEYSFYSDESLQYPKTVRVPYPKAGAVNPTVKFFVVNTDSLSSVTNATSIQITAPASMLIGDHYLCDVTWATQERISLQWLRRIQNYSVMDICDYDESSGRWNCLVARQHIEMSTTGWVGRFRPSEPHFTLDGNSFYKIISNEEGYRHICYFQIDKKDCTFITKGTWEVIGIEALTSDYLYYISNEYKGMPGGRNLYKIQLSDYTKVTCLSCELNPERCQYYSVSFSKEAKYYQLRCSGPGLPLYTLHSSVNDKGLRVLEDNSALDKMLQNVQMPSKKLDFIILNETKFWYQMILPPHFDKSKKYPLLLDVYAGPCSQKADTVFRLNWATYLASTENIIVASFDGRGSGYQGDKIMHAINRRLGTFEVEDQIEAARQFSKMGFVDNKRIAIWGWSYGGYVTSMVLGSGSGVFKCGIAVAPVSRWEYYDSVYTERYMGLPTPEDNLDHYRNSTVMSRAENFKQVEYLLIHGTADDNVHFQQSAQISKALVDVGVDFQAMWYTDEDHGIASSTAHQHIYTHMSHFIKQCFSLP

IC50 [µM] | SMILES
87.1 | COc1cc2cc(Oc3ccc4ccc(=O)oc4c3)c(=O)oc2cc1O [DAPHNORETIN]
114 | CCOC(=O)c1c(O)cc(O)c2c1OC(c1ccc(O)cc1)CC2 (stereo not drawn)
87.7 | CCOC(=O)/C=C/c1ccc(O)c(O)c1 [ETHYL CAFFEATE]
26.9 | O=C(/C=C/c1ccc(O[C@@H]2O[C@H](CO)[C@@H](O)[C@H](O)[C@H]2O)cc1)c1ccc(O)cc1O [ISOLIQUIRITIN]
56.2 | COc1ccc2c(c1OC)CN(C)c1c-2ccc2cc3c(cc12)OCO3 [DIHYDROCHELERYTHRINE]
33.1 | COc1cc(O)c(C(=O)/C=C/c2ccc(O)cc2)c(OC)c1 [FLAVOKAWAIN C]
38.4 | O=C(CC(O)CCc1ccccc1)c1ccc(O)cc1 (stereo not drawn)
83.2 | O=C(O)/C=C/c1ccc(O)cc1 [COUMARIC ACID]
41.4 | COC(=O)C1(O)CC(O)C(O)C(OC(=O)/C=C/c2ccc(O)c(O)c2)C1 (stereo not drawn)

SMILES | IC50 [µM]
O=c1c(O)c(-c2cc(O)c(O)c(O)c2)oc2cc(O)cc(O)c12 [MYRICETIN] | 37.1
C=C(C)[C@@H]1CC[C@]2(C(=O)O)CC[C@]3(C)[C@H](CC[C@@H]4[C@@]5(C)CC[C@H](O)C(C)(C)[C@@H]5CC[C@]43C)[C@@H]12 [BETULINIC ACID] | 55.8
CC[C@H](CC[C@@H](C)[C@H]1CC[C@H]2[C@@H]3CC=C4C[C@@H](O)CC[C@]4(C)[C@H]3CC[C@]12C)C(C)C [BETA-SITOSTEROL] | 28.8
O=c1c(O)c(-c2ccc(O)c(O)c2)oc2cc(O)cc(O)c12 [QUERCETIN] | 32.7
